Holding throughout (type): functional
The nature of test [1]: Compound was evaluated for the inhibition of RANTES-induced migration of human monocytes.
A short description of test [2]: Compound was evaluated for the inhibition of RANTES-induced migration of human monocytes; NA: not active.
Test [3] addresses T1, C-C chemokine receptor type 1 (Homo sapiens, UniProt P32246).
T1 sequence (P32246 whole entry): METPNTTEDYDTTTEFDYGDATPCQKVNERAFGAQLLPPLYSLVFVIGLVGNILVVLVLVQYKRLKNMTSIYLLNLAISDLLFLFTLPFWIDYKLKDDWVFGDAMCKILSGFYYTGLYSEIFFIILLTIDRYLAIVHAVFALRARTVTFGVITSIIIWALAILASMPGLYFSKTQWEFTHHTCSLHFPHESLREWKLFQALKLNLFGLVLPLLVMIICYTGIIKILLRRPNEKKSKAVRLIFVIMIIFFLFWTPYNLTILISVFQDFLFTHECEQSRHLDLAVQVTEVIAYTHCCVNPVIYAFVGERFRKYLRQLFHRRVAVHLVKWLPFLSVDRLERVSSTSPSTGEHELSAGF
Description: Compound was evaluated for the inhibition of RANTES-induced migration of human embryonic kidney (CCR1/HEK) cell transfectants; NA: not active.

For `CC(C)CCCC(C)[C@H]1CC[C@H]2[C@@H]3CCC4C[C@@H](CCC=C(c5cc(Cl)c(OCc6cccc(B(O)O)c6)c(C(=O)O)c5)c5cc(Cl)c(OCc6cccc(B(O)O)c6)c(C(=O)O)c5)CC[C@]4(C)[C@H]3CC[C@]12C` (stereo partly specified), in test [1], the IC50 amounted to 2200 nM. In other words, the single-digit micromolar range.

Consider `CC(C)CCCC(C)[C@H]1CC[C@H]2[C@@H]3CCC4C[C@@H](CCC=C(c5cc(Cl)c(O)c(C(=O)N[C@@H](CCC(=O)O)C(=O)O)c5)c5cc(Cl)c(O)c(C(=O)N[C@@H](CCC(=O)O)C(=O)O)c5)CC[C@]4(C)[C@H]3CC[C@]12C` (stereo partly specified), for which, in test [2], the IC50 result is listed as “Not Active”.

As to `CC(C)CCCC(C)[C@H]1CC[C@H]2[C@@H]3CCC4C[C@@H](CCC=C(c5cc(Cl)c(OCc6ccc(B([O-])O)cc6)c(C(=O)[O-])c5)c5cc(Cl)c(OCc6ccc(B([O-])O)cc6)c(C(=O)[O-])c5)CC[C@]4(C)[C@H]3CC[C@]12C.[Na+].[Na+].[Na+].[Na+]` (stereo partly specified), the IC50 entry in test [2] is “Not Active”.

In test [1], `CSCC[C@H](NC(=O)c1cc(C(=CCC[C@H]2CC[C@@]3(C)C(CC[C@H]4[C@@H]5CC[C@H](C(C)CCCC(C)C)[C@@]5(C)CC[C@@H]43)C2)c2cc(Cl)c(O)c(C(=O)N[C@@H](CCSC)C(=O)O)c2)cc(Cl)c1O)C(=O)O` (stereo partly specified) displayed an IC50 of 820 nM.

As for `CC(C)CCCC(C)[C@H]1CC[C@H]2[C@@H]3CCC4C[C@@H](CCC=C(c5cc(Cl)c(OCc6ccc(C(=O)[O-])cc6)c(C(=O)[O-])c5)c5cc(Cl)c(OCc6ccc(C(=O)[O-])cc6)c(C(=O)[O-])c5)CC[C@]4(C)[C@H]3CC[C@]12C.[Na+].[Na+].[Na+].[Na+]` (stereo partly specified), the half-inhibitory concentration (IC50) entry in test [3] and in test [2] was “Not Active” in each case.

In test [1], `CC(C)CCCC(C)[C@H]1CC[C@H]2[C@@H]3CCC4C[C@@H](CCC=C(c5cc(Cl)c(OCc6ccc(-c7cccc(C(=O)O)c7)cc6)c(C(=O)O)c5)c5cc(Cl)c(OCc6ccc(-c7cccc(C(=O)O)c7)cc6)c(C(=O)O)c5)CC[C@]4(C)[C@H]3CC[C@]12C` (stereo partly specified) came in with an IC50 of 3000 nM.

Consider `CC(C)CCCC(C)[C@H]1CC[C@H]2[C@@H]3CCC4C[C@@H](CCC=C(c5cc(Cl)c(OCc6cccc([N+](=O)[O-])c6)c(C(=O)O)c5)c5cc(Cl)c(OCc6cccc([N+](=O)[O-])c6)c(C(=O)O)c5)CC[C@]4(C)[C@H]3CC[C@]12C` (stereo partly specified), for which the IC50 in test [1] is 3500 nM.

As to `CC(C)CCCC(C)[C@H]1CC[C@H]2[C@@H]3CCC4C[C@@H](CCC=C(c5cc(Cl)c(OCc6ccccc6C(=O)O)c(C(=O)O)c5)c5cc(Cl)c(OCc6ccccc6C(=O)O)c(C(=O)O)c5)CC[C@]4(C)[C@H]3CC[C@]12C` (stereo partly specified), in test [1], it took 3900 nM to reach half-maximal inhibition (IC50).

In test [1], `CC(C)CCCC(C)[C@H]1CC[C@H]2[C@@H]3CCC4C[C@@H](CCC=C(c5cc(Cl)c(OCc6cccc(C(=O)O)c6)c(C(=O)O)c5)c5cc(Cl)c(OCc6cccc(C(=O)O)c6)c(C(=O)O)c5)CC[C@]4(C)[C@H]3CC[C@]12C` (stereo partly specified) showed a half-maximal inhibitory concentration (IC50) of 10000 nM.

`CC(C)CCCC(C)[C@H]1CC[C@H]2[C@@H]3CCC4C[C@@H](CCC=C(c5cc(Cl)c(O)c(C(=O)N[C@@H](CC(=O)O)C(=O)O)c5)c5cc(Cl)c(O)c(C(=O)N[C@@H](CC(=O)O)C(=O)O)c5)CC[C@]4(C)[C@H]3CC[C@]12C` (stereo partly specified): the half-maximal inhibitory concentration (IC50) result in test [2] is given as “Not Active”.

Regarding `COc1c(COc2c(Cl)cc(C(=CCC[C@H]3CC[C@@]4(C)C(CC[C@H]5[C@@H]6CC[C@H](C(C)CCCC(C)C)[C@@]6(C)CC[C@@H]54)C3)c3cc(Cl)c(OCc4cccc(C(=O)O)c4OC)c(C(=O)[O-])c3)cc2C(=O)[O-])cccc1C(=O)O.[Na+].[Na+]` (stereo partly specified), in test [2], the half-maximal inhibitory concentration (IC50) entry was “Not Active”.

Take `CC(C)CCCC(C)[C@H]1CC[C@H]2[C@@H]3CCC4C[C@@H](CCC=C(c5cc(Cl)c(O)c(C(=O)O)c5)c5cc(Cl)c(O)c(C(=O)O)c5)CC[C@]4(C)[C@H]3CC[C@]12C` (stereo partly specified): in test [1], the IC50 was found to be 760 nM.

Consider `CC(C)CCCC(C)[C@H]1CC[C@H]2[C@@H]3CCC4C[C@@H](CCC=C(c5cc(Cl)c(O)c(C(=O)N[C@@H](Cc6ccccc6)C(=O)O)c5)c5cc(Cl)c(O)c(C(=O)N[C@@H](Cc6ccccc6)C(=O)O)c5)CC[C@]4(C)[C@H]3CC[C@]12C` (stereo partly specified), for which the IC50 result in test [2] is “Not Active”.

For `CC(C)CCCC(C)[C@H]1CC[C@H]2[C@@H]3CCC4C[C@@H](CCC=C(c5cc(Cl)c(OCc6ccc(C(=O)O)cc6)c(C(=O)[O-])c5)c5cc(Cl)c(OCc6ccc(C(=O)O)cc6)c(C(=O)[O-])c5)CC[C@]4(C)[C@H]3CC[C@]12C.[Na+].[Na+]` (stereo partly specified), the IC50 result in test [2] was “Not Active”.

Turning to `CC(C)CCCC(C)[C@H]1CC[C@H]2[C@@H]3CCC4C[C@@H](CCC=C(c5cc(Cl)c(OCc6ccccc6B([O-])O)c(C(=O)[O-])c5)c5cc(Cl)c(OCc6ccccc6B([O-])O)c(C(=O)[O-])c5)CC[C@]4(C)[C@H]3CC[C@]12C.[Na+].[Na+].[Na+].[Na+]` (stereo partly specified), the IC50 result in test [2] is reported as “Not Active”.

By IC50 is commonly meant the concentration needed to halve the response being measured. Higher therefore signals a need for much substance.

The record behind these values is ChEMBL document CHEMBL1134764, “Inhibition of RANTES/CCR1-mediated chemotaxis by cosalane and related compounds” (Bioorg Med Chem Lett, 2001).
